Data published in paper PMC5829263, “Homoarginine and inhibition of human arginase activity: kinetic characterization and biological relevance” (Scientific Reports, 2018).
Several values for one entry are separate records, joined by “and”; a condition that tells them apart may be missing. Equal values may be shown once. Read-outs that look alike come from different tables or passages of the source. Values belong to the compound of their own block, whether it stands above or below them.

Assays:
arginase 2 = settings: cited from earlier work
[1] = target: T1, recombinant human arginase 1 (Homo sapiens, UniProt P05089); experiment: Arginase 1 inhibition, UPLC-MS measurement of ARG to ORN conversion in HEK293T cell lysate; settings: for remaining activity at 1 µM / remaining activity at 10 µM / remaining activity at 100 µM / remaining activity at 1000 µM / remaining activity at 10000 µM: read-out: % of control activity at the corresponding [Inhibitor] ± SE, arginase 1, mean of two experiments; for remaining activity at 1 µM: inhibitor 1 µM; for remaining activity at 10 µM: inhibitor 10 µM; for remaining activity at 100 µM: inhibitor 100 µM; for remaining activity at 1000 µM: inhibitor 1,000 µM; for remaining activity at 10000 µM: inhibitor 10,000 µM; for inhibition at 1000 µM: inhibitor 1 mM; for inhibition at 10000 µM: inhibitor 10 mM;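 on all read-outs here: arginase 1–expressing HEK293T lysate at 0.05 mg/mL in pH 7.4 phosphate buffer, inhibitor preincubated 5 min with enzyme, then reaction started by adding ARG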
T1 sequence (P05089 1-322): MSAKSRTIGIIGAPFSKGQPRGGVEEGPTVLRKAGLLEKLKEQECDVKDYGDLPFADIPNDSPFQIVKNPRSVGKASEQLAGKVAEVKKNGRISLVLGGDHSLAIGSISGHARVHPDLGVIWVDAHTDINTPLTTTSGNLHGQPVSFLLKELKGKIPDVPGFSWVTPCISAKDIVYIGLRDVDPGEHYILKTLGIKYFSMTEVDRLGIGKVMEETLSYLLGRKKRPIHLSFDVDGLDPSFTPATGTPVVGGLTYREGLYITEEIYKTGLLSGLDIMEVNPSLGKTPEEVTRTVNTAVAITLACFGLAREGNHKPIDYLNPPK
Procedure: (§1) Following a 5-min pre-equilibration period reactions were initiated by the addition of the cell lysate solution in 0.05 M phosphate buffer to a pre-equilibrated aqueous solution of the substrate (ARG).
(§2) The samples were vortex mixed (20 sec) and cooled in an ice/water bath for 10 min prior to centrifugation (5 min, 18,000 × g, room temperature) to precipitate the proteins. An aliquot of the supernatant layer was diluted with a 7:3 mobile phase A/mobile phase B solution into glass UPLC vial inserts.
(§3) Incubation mixtures comprised of HEK293T cell lysate expressing arginase 1 (0.05 mg/mL) or arginase 2 (0.1 mg/mL), phosphate buffer (0.05 M, pH 7.4), inhibitor (0, 0.1, 1, 10, 100, 1000 or 10000 μM) and ARG (0.1, 2 or 3 mM). Following a 5-min pre-incubation of the potential inhibitor with arginase 1 or arginase 2, reactions were initiated by the addition of a pre-equilibrated solution of the substrate ARG.
Ki values were derived from fitting the competitive inhibition equation to experimental data. Ki data are the mean of three singlicate experiments.

[2] = target: T2, recombinant human arginase 2 (Homo sapiens, UniProt P78540); experiment: Arginase 2 inhibition, UPLC-MS measurement of ARG to ORN conversion in HEK293T cell lysate; settings: for remaining activity at 1 µM / remaining activity at 10 µM / remaining activity at 100 µM / remaining activity at 1000 µM / remaining activity at 10000 µM: read-out: % of control activity at the corresponding [Inhibitor] ± SE, arginase 2, mean of two experiments; for remaining activity at 1 µM: inhibitor 1 µM; for remaining activity at 10 µM: inhibitor 10 µM; for remaining activity at 100 µM: inhibitor 100 µM; for remaining activity at 1000 µM: inhibitor 1,000 µM; for remaining activity at 10000 µM: inhibitor 10,000 µM; for inhibition at 1000 µM: inhibitor 1 mM; for inhibition at 10000 µM: inhibitor 10 mM;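 on all read-outs here: HEK293T lysate carrying arginase 2 at 0.1 mg/mL in 0.05 M phosphate buffer pH 7.4, inhibitor preincubated with enzyme 5 min before ARG addition started the reaction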
T2 sequence (P78540 23-354): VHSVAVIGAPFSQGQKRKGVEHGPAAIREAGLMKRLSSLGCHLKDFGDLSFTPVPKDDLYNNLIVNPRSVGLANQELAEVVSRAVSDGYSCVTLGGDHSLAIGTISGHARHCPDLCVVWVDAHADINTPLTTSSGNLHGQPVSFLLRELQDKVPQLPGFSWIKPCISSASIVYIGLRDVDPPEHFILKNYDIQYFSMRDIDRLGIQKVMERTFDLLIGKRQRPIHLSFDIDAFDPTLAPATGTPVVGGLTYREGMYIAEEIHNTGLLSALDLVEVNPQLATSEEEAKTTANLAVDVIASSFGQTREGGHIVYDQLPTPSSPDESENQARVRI
Procedure: as §1, §2, §3
Sample were diluted 3:17 in mobile phase solution prior injection.

[3] = target: T1, recombinant human arginase 1; experiment: Arginase 1 activity assay, kinetics of ARG conversion to ORN; type: biochemical; settings: conversion of ARG to ORN
Procedure: Incubation mixtures contained HEK293T cell lysate expressing recombinant human arginase 1 (0.05 mg/mL) or arginase 2 (0.1 mg/mL), phosphate buffer (0.05 M, pH 7.4) and ARG (0 to 15 mM).
as §1, §2
Kinetic data are the mean of three singlicate experiments.

[4] = target: T2, recombinant human arginase 2; experiment: Arginase 2 activity assay, kinetics of ARG conversion to ORN; type: biochemical
arginase 1 = settings: arginase 1; range previously reported; cited from earlier work
[5] = read-out: inhibition of arginase 1 activity, ARG 100 µM (physiological)
[6] = read-out: inhibition of arginase 1 activity, ARG 3 mM (Km)
[7] = read-out: inhibition of arginase 2, ARG 100 µM
[8] = read-out: inhibition of arginase 2, ARG 2 mM

- inhibitory effect on arginase 1 activity at physiological inhibitor concentrations ([1]; LYS 100–1000 µM, HOMOARG 1–10 µM): no significant inhibitory effects
- inhibition model fitting the data ([1]; arginase 1, poorly fit by uncompetitive, noncompetitive and mixed models): competitive
- remaining activity at 1 µM ([1]; ARG 100 µM): 88 ± 21%
- remaining activity at 10 µM ([1]; ARG 100 µM): 89 ± 10%
- remaining activity at 100 µM ([1]; ARG 100 µM): 105 ± 18%
- remaining activity at 1000 µM ([1]; ARG 100 µM): 56 ± 5%
- remaining activity at 10000 µM ([1]; ARG 100 µM): 19 ± 1%
- remaining activity at 1 µM ([1]; ARG 3 mM): 108 ± 13%
- remaining activity at 10 µM ([1]; ARG 3 mM): 103 ± 10%
- remaining activity at 100 µM ([1]; ARG 3 mM): 82 ± 4%
- remaining activity at 1000 µM ([1]; ARG 3 mM): 63 ± 8%
- remaining activity at 10000 µM ([1]; ARG 3 mM): 22 ± 1%
- inhibition at 1000 µM [1, 5]: 44%
- inhibition at 10000 µM [1, 5]: 81%
- inhibition at 1000 µM [1, 6]: 39%
- inhibition at 10000 µM [1, 6]: 78%
- Ki [2]: 500 ± 30 µM
- IC50 ([2]; IC50 ( ± SE), arginase 2, ARG 2 mM): 900 µM and 880 µM
- inhibition model fitting the data ([2]; arginase 2, poorly fit by uncompetitive, noncompetitive and mixed models): competitive
- inhibition of arginase 2 at physiological inhibitor concentrations ([2]; physiological LYS and HOMOARG concentrations): no significant inhibition
- remaining activity at 1 µM ([2]; ARG 100 µM): 92 ± 6%
- remaining activity at 10 µM ([2]; ARG 100 µM): 97 ± 5%
- remaining activity at 100 µM ([2]; ARG 100 µM): 78 ± 11%
- remaining activity at 1000 µM ([2]; ARG 100 µM): 56 ± 14%
- remaining activity at 10000 µM ([2]; ARG 100 µM): 12 ± 4%
- remaining activity at 1 µM ([2]; ARG 2 mM): 88 ± 6%
- remaining activity at 10 µM ([2]; ARG 2 mM): 82 ± 6%
- remaining activity at 100 µM ([2]; ARG 2 mM): 84 ± 5%
- remaining activity at 1000 µM ([2]; ARG 2 mM): 58 ± 1%
- remaining activity at 10000 µM ([2]; ARG 2 mM): 33 ± 4%
- inhibition at 1000 µM [2, 7]: 44%
- inhibition at 10000 µM [2, 7]: 88%
- inhibition at 1000 µM [2, 8]: 42%
- inhibition at 10000 µM [2, 8]: 67%
Structure (SMILES): NCCCC[C@H](N)C(=O)O [LYS, lysine]
- Ki (arginase 2; arginase 2 inhibition, ref Colleluori et al. 15): 7000 µM

Structure (SMILES): N=C(N)NCCC[C@H](N)C(=O)O [ARG, arginine]
- Vmax (nmol·min^−1·mg^−1) ± SE ([3]; Expt 1): 37 ± 1 nmol/min/mg
- Km ([3]; Expt 1, read-out: Km (mM) ± SE): 3.4 ± 0.4 mM
- Vmax (nmol·min^−1·mg^−1) ± SE ([3]; Expt 2): 32 ± 1 nmol/min/mg
- Km ([3]; Expt 2, read-out: Km (mM) ± SE): 3.8 ± 0.2 mM
- Vmax (nmol·min^−1·mg^−1) ± SE ([3]; Expt 3): 35 ± 1 nmol/min/mg
- Km ([3]; Expt 3, read-out: Km (mM) ± SE): 3.5 ± 0.2 mM
- Vmax (nmol·min^−1·mg^−1) ± SE ([3]; Mean): 34 ± 1 nmol/min/mg
- Vmax (pmol·min^−1·mg^−1) ± SE ([4]; Expt 1): 984 ± 8 pmol/min/mg
- Km ([4]; Expt 1, read-out: Km (mM) ± SE): 2.4 ± 0.1 mM
- Vmax (pmol·min^−1·mg^−1) ± SE ([4]; Expt 2): 837 ± 12 pmol/min/mg
- Km ([4]; Expt 2, read-out: Km (mM) ± SE): 1.7 ± 0.1 mM
- Vmax (pmol·min^−1·mg^−1) ± SE ([4]; Expt 3): 834 ± 5 pmol/min/mg
- Km ([4]; Expt 3, read-out: Km (mM) ± SE): 1.8 ± 0.1 mM
- Vmax (pmol·min^−1·mg^−1) ± SE ([4]; Mean): 883 ± 16 pmol/min/mg
- Km ([4]; Mean, read-out: Km (mM) ± SE): 1.9 ± 0.1 mM
- Km (arginase 1): 1000 to 9000 µM
- Km (arginase 2; arginase 2, range previously reported): 1000 to 7000 µM
